As a reminder, the MIC is the least concentration at which growth counts as inhibited.

In brackets after ≈: the same amount, converted by molar mass. Activity calls are given as the source filed them. The rule behind the calls is not given here.

Data set [1] deals with Enterococcus faecalis. In words: Antibacterial activity against vancomycin-resistant Enterococcus faecalis ATCC51299 measured after 24 hrs by CLSI based broth microdilution method. Format: functional. A general note: Broth dilution looks for growth in wells or tubes with falling amounts of substance.
A further data set relates to RAW264.7. Kind of data set: Cytotoxicity against mouse RAW264.7 cells at 16 ug/ml incubated for 24 hrs by MTT assay. Format: toxicity, cell-based. The conditions noted are these: raw264.7, 24 h, dose 16 µg/ml. Background: Tetrazolium dyes change colour on reduction, which living cells bring about.
In data set [2] the test system is Staphylococcus aureus. In words: Antibacterial activity against methicillin-resistant Staphylococcus aureus at sub-MIC concentration measured after 24 hrs by CLSI based broth microdilution method. Format: functional, organism-based.
Data set [3] relates to Enterococcus faecalis. In words: Bactericidal activity against vancomycin-resistant Enterococcus faecalis ATCC51299 assessed as reduction in number of bacteria at 2 times MIC measured within 15 mins by time-kill assay. Format: functional, organism-based.
Data set [4] relates to Staphylococcus aureus. Kind of data set: Induction of morphological changes in biofilm of methicillin-resistant Staphylococcus aureus assessed as decrease in biofilm density at 1 to 4 times MIC incubated for 24 hrs by DAPI staining based fluorescence microscopy analysis. Format: functional, organism-based.
For data set [5], the system named is Staphylococcus aureus. In words: Antibiofilm activity in methicillin-resistant Staphylococcus aureus assessed as increase in biofilm destruction at 1 times MIC incubated for 24 hrs by crystal violet staining based analysis relative to control. Format: functional.
The test system of data set [6] is Enterococcus faecalis. In words: Antibiofilm activity in vancomycin-resistant Enterococcus faecalis ATCC51299 assessed as increase in biofilm destruction at 1 times MIC incubated for 24 hrs by crystal violet staining based analysis relative to control. Format: functional.
Data set [7] has as its system Staphylococcus aureus. Kind of data set: Antimicrobial activity against methicillin-resistant Staphylococcus aureus assessed as reduction in bacterial growth in presence of phosphatidylethanolamine by checkerboard broth dilution method. Format: functional, organism-based.
For data set [8], the system named is Enterococcus faecalis. In words: Antibacterial activity against vancomycin-resistant Enterococcus faecalis ATCC51299 infected in female Kunming mouse model of abdominal infection assessed as decrease in bacterial load in liver at 4 mg/kg administered daily pre-infected for 12 hrs followed by compound administration for 3 days. Format: functional, organism-based. The settings on record: time 3.0 day.

Data set [9] relates to Enterococcus faecalis. In words: Antibacterial activity against vancomycin-resistant Enterococcus faecalis ATCC51299 infected in female Kunming mouse model of abdominal infection assessed as decrease in bacterial load in spleen at 4 mg/kg administered daily pre-infected for 12 hrs followed by compound administration for 3 days. It is filed as functional, organism-based. The settings on record: time 3.0 day.

Data set [10] deals with Enterococcus faecalis. In words: Antibacterial activity against vancomycin-resistant Enterococcus faecalis ATCC51299 infected in female Kunming mouse model of abdominal infection assessed as decrease in bacterial load in kidney at 4 mg/kg administered daily pre-infected for 12 hrs followed by compound administration for 3 days. It is filed as functional, organism-based. The conditions noted are these: time 3.0 day.

Data set [11] has as its system Enterococcus faecalis. Kind of data set: Antibacterial activity against vancomycin-resistant Enterococcus faecalis ATCC51299 infected in female Kunming mouse model of abdominal infection assessed as decrease in bacterial load in peritoneal effusion at 4 mg/kg administered daily pre-infected for 12 hrs followed by compound administration for 3 days. The settings on record: time 3.0 day. Format: functional, organism-based.

For data set [12], the system named is Enterococcus faecalis. Kind of data set: Antibacterial activity against vancomycin-resistant Enterococcus faecalis ATCC51299 infected in female Kunming mouse model of abdominal infection assessed as decrease in inflammatory cell infiltration at 4 mg/kg administered daily pre-infected for 12 hrs followed by compound administration for 3 days. Format: functional, organism-based. The conditions noted are these: time 3.0 day.

Data set [13] deals with Enterococcus faecalis. Kind of data set: Antibacterial activity against vancomycin-resistant Enterococcus faecalis ATCC51299 infected in female Kunming mouse model of abdominal infection assessed as decrease in granulocytes at 4 mg/kg administered daily pre-infected for 12 hrs followed by compound administration for 3 days. Format: functional, organism-based. The settings on record: time 3.0 day.

The test system of data set [14] is Enterococcus faecalis. Kind of data set: Antibacterial activity against vancomycin-resistant Enterococcus faecalis ATCC51299 infected in female Kunming mouse model of abdominal infection assessed as watery degeneration of hepatocytes at 4 mg/kg administered daily pre-infected for 12 hrs followed by compound administration for 3 days. It is filed as functional, organism-based. The settings on record: time 3.0 day.

Data set [15] has as its system Staphylococcus aureus. Kind of data set: Antibacterial activity against methicillin resistant Staphylococcus aureus infected in female Kunming mouse model of skin infection assessed as reduction in wound size at 4 mg/kg administered daily pre-infected for 4 hrs followed by compound administration for 7 days. The settings on record: time 7.0 day. Format: functional, organism-based.

Data set [16] deals with Staphylococcus aureus. In words: Antibacterial activity against methicillin resistant Staphylococcus aureus infected in female Kunming mouse model of skin infection assessed as suppression of purulent secretion at 4 mg/kg administered daily pre-infected for 4 hrs followed by compound administration for 7 days. It is filed as functional, organism-based. The conditions noted are these: time 7.0 day.

Data set [17] relates to Staphylococcus aureus. Kind of data set: Antibacterial activity against methicillin resistant Staphylococcus aureus infected in female Kunming mouse model of skin infection assessed as reduction in bacterial load of wound at 4 mg/kg administered daily pre-infected for 4 hrs followed by compound administration for 7 days. It is filed as functional, organism-based. The settings on record: time 7.0 day.

The nature of data set [18]: Toxicity in Kunming mouse assessed as morphological abnormalities at 4 mg/kg administered daily and measured after 7 days. It is filed as organism-based. The settings on record: in vivo, 168 h, time 7 day.
Data set [19] has as its system Staphylococcus aureus. In words: Antibacterial activity against methicillin resistant Staphylococcus aureus infected in female Kunming mouse model of skin infection assessed as reduction in inflammatory cell infiltration at 4 mg/kg administered daily pre-infected for 4 hrs followed by compound administration for 7 days. Format: functional, organism-based. The settings on record: time 7.0 day.

Data set [20] relates to Staphylococcus aureus. In words: Antibacterial activity against methicillin resistant Staphylococcus aureus infected in female Kunming mouse model of skin infection assessed as increase in neovascularization at 4 mg/kg administered daily pre-infected for 4 hrs followed by compound administration for 7 days. Format: functional, organism-based. The conditions noted are these: time 7.0 day.

`C=CCCCCCCCCCCCc1cc(O)cc(O)c1`: 4 µg/mL (≈ 13.8 µM) was the least that counted as inhibitory in the data set with Enterococcus faecalis [1] (MIC). Also, the figures for the Activity entry in the data set on RAW264.7, in the data set with Staphylococcus aureus [5] and with Enterococcus faecalis [6] were “Non-Toxic”, greater than 50% and greater than 50%, respectively. In addition, the result with Staphylococcus aureus [2], with Enterococcus faecalis [3], with Staphylococcus aureus [4], in the data set with Enterococcus faecalis [8], in the data set on Enterococcus faecalis [9] and in the data set with Enterococcus faecalis [10] was Active. For the same molecule, the result in the data set on Enterococcus faecalis [11], in the data set with Enterococcus faecalis [12], with Enterococcus faecalis [13] and with Enterococcus faecalis [14] was Active. In addition, the result with Staphylococcus aureus [7] was inactive.

Consider `C=CCCCCCCCCCCCc1cc(O)cc(O)c1C(=O)O`, for which, in the data set on Enterococcus faecalis [1], the MIC worked out at 4 µg/mL (≈ 12 µM). Also, the Activity result (in the data set with RAW264.7; in data set [18]) was “Non-Toxic” in each case. For the same molecule, the outcome in the data set on Staphylococcus aureus [2], in the data set with Enterococcus faecalis [3], in the data set with Staphylococcus aureus [4], in the data set on Staphylococcus aureus [15], in the data set with Staphylococcus aureus [16] and with Staphylococcus aureus [17] was Active. For the same molecule, the outcome with Staphylococcus aureus [19] and in the data set on Staphylococcus aureus [20] was Active. Further, in the data set on Staphylococcus aureus [7], the result was inactive.

These data come from ChEMBL document CHEMBL6071135, “New resorcylic acid derivatives of Lysimachia tengyuehensis against MRSA and VRE by interfering with bacterial metabolic imbalance” (Eur J Med Chem, 2024).
